Activity calls are given as the source filed them. The calls are words filed in the database; no cut-off is given here.
Key:
[1] = molecular target: T1, Metabotropic glutamate receptor 5 (Homo sapiens, UniProt P41594); assay: Displacement of [3H]-MPEPy from human mGluR5A transfected in HEK293 cell membranes after 60 mins by microbeta liquid scintillation counting analysis
Target sequence in this assay (P41594 whole entry): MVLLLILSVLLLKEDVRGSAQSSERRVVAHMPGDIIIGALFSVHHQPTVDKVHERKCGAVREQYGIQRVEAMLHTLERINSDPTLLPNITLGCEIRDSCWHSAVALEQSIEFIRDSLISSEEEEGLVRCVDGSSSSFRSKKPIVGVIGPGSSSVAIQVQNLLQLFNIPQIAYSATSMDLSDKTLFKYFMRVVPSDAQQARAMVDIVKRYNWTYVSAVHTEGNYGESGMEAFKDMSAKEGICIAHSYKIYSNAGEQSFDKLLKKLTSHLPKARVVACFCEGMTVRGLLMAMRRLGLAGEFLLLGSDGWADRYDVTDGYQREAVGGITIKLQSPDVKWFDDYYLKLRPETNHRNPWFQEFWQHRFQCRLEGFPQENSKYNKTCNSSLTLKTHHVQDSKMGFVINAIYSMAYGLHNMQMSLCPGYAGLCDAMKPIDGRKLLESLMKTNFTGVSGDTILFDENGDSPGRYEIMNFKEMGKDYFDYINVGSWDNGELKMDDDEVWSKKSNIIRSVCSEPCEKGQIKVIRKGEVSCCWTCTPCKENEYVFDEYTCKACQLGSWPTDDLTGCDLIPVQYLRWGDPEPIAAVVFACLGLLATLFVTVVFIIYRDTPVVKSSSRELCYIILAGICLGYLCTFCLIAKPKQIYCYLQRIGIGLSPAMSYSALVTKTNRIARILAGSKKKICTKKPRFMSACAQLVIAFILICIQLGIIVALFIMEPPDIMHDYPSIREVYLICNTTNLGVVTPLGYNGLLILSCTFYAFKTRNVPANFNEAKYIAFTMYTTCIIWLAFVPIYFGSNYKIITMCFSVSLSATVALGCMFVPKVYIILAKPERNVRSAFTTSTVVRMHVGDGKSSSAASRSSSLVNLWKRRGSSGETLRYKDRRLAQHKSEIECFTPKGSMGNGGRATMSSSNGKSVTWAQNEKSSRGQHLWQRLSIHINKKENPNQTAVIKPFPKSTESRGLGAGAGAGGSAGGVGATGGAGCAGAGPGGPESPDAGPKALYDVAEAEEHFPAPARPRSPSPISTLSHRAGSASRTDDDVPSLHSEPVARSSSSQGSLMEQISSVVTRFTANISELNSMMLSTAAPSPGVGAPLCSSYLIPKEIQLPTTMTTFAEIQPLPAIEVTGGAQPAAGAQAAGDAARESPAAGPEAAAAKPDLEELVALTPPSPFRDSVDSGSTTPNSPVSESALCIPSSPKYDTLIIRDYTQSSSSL

[2] = molecular target: T1, Metabotropic glutamate receptor 5; assay: Positive allosteric modulation of human mGluR5A transfected in HEK293 cells assessed as potentiation of L-glutamate-induced calcium release incubated for 10 mins by FLIPR assay; type: functional, cell-based
Target sequence in this assay (P41594 whole entry): as above

[3] = Toxicity in C57BL/6 mouse assessed as induction of convulsions at 3 mg/kg, ip during 3 hrs study; type: organism-based; details: in vivo
[4] = molecular target: T1, Metabotropic glutamate receptor 5; assay: Agonist activity at human mGluR5A transfected in HEK293 cells assessed as induction of calcium release by FLIPR assay; type: functional, cell-based
Target sequence in this assay (P41594 whole entry): as above

[5] = Toxicity in C57BL/6 mouse assessed as induction of convulsions at 30 mg/kg, ip during 3 hrs study; type: organism-based; details: in vivo
Mus musculus [6] = assay: Ex vivo receptor occupancy at mGluR5A in C57BL/6 mouse at 10 and 30 mg/kg; type: functional, organism-based
[7] = Fraction unbound in mouse serum; type: ADME, cell-free
[8] = Fraction unbound in human serum; type: ADME, cell-free
[9] = molecular target: T1, Metabotropic glutamate receptor 5; assay: Antagonist activity against human mGluR5A transfected in HEK293 cells assessed as inhibition of L-glutamate-induced calcium release up to 3 uM after 10 mins by FLIPR assay; type: functional, cell-based
Target sequence in this assay (P41594 21-1212 limits assumed): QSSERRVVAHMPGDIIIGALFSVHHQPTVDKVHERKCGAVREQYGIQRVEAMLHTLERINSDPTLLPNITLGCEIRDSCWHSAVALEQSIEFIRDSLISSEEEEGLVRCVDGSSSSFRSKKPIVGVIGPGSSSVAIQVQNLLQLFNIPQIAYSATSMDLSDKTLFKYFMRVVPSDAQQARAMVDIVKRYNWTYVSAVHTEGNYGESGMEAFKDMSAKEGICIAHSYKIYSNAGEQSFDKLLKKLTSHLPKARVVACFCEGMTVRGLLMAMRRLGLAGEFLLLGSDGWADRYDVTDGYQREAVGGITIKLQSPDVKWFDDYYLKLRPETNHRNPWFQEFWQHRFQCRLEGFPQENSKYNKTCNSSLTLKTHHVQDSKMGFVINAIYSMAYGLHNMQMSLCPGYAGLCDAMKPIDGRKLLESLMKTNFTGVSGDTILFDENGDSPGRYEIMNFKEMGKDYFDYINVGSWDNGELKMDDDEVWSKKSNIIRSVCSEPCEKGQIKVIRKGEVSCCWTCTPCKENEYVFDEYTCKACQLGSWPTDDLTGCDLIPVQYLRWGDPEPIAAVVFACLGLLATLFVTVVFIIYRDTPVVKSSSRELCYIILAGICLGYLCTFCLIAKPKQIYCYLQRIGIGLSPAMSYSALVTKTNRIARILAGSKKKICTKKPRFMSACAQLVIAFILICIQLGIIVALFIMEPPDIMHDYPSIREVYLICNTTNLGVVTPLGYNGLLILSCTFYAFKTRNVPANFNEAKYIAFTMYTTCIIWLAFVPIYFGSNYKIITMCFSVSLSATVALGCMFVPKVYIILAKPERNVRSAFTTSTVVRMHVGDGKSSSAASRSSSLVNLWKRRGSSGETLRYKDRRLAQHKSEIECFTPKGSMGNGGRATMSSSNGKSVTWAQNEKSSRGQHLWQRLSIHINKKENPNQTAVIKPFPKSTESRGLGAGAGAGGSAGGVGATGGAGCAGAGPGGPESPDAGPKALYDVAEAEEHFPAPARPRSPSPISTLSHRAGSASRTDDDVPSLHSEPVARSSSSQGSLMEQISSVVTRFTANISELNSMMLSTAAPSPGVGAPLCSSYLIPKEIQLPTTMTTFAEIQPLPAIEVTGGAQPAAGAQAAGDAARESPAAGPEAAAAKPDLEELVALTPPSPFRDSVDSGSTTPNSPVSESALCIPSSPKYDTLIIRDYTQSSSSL

[10] = molecular target: T1, Metabotropic glutamate receptor 5; assay: Agonist activity at human mGluR5A transfected in HEK293 cells assessed as induction of calcium release up to 3 uM by FLIPR assay; type: functional, cell-based
Target sequence in this assay (P41594 21-1212 limits assumed): as above

[11] = Fraction unbound in rat serum; type: ADME, cell-free
[12] = Metabolic stability in rat liver microsomes assessed as compound remaining after 10 mins; type: ADME, Microsome; details: read-out: Stability
[13] = Toxicity in C57BL/6 mouse assessed as induction of convulsions at 1 mg/kg, ip during 3 hrs study; type: organism-based; details: in vivo
[14] = Metabolic stability in human liver microsomes assessed as compound remaining after 10 mins; type: ADME, Microsome; details: read-out: Stability
[15] = Metabolic stability in mouse liver microsomes assessed as compound remaining after 10 mins; type: ADME, Microsome; details: read-out: Stability
[16] = molecular target: T1, Metabotropic glutamate receptor 5; assay: Displacement of [3H]-MPEP from human mGluR5A transfected in HEK293 cells after 60 mins by microbeta liquid scintillation counting analysis; type: cell-based
Target sequence in this assay (P41594 whole entry): as the sequence (P41594 whole entry) above

[17] = Ratio of drug uptake in C57BL/6 mouse brain to plasma at 1 mg/kg, sc measured after 60 mins; type: ADME, organism-based; details: read-out: BPR
[18] = Ratio of drug uptake in C57BL/6 mouse brain to plasma at 3 mg/kg, sc measured after 60 mins; type: ADME, organism-based; details: read-out: BPR
[19] = Drug uptake in C57BL/6 mouse plasma at 3 mg/kg, sc measured after 60 mins; type: ADME, organism-based
[20] = Drug uptake in C57BL/6 mouse brain at 1 mg/kg, sc measured after 60 mins; type: ADME, organism-based; details: read-out: Drug uptake
Mus musculus [21] = assay: Cognitive enhancing effect in sc dosed C57BL/6 mouse assessed as time spent on exploring novel objects administered 1 hr before acquisition session followed by acquisition session for 15 mins by novel object recognition test; type: functional; details: C57BL/6, sc, read-out: MED
[22] = Drug uptake in C57BL/6 mouse brain at 3 mg/kg, sc measured after 60 mins; type: ADME, organism-based; details: read-out: Drug uptake
[23] = Drug uptake in C57BL/6 mouse plasma at 1 mg/kg, sc measured after 60 mins; type: ADME, organism-based
[24] = Ratio of drug uptake in C57BL/6 mouse brain to plasma at 10 mg/kg, sc measured after 60 mins; type: ADME, organism-based; details: read-out: BPR
[25] = Drug uptake in C57BL/6 mouse brain at 10 mg/kg, sc measured after 60 mins; type: ADME, organism-based; details: read-out: Drug uptake
[26] = Drug uptake in C57BL/6 mouse plasma at 10 mg/kg, sc measured after 60 mins; type: ADME, organism-based
[27] = Toxicity in C57BL/6 mouse assessed as induction of convulsions at 10 mg/kg, ip during 3 hrs study; type: organism-based; details: in vivo
[28] = Toxicity in C57BL/6 mouse assessed as induction of convulsions at 10 mg/kg, ip coadministered with (4R,5R)-5-phenyl-4-(4-(phenylethynyl)pyridin-2-yl)oxazolidin-2-one during 3 hrs study; type: organism-based; details: in vivo
[29] = molecular target: T1, Metabotropic glutamate receptor 5; assay: Negative allosteric modulation of human mGluR5A transfected in HEK293 cells assessed as inhibition of L-glutamate-induced calcium release after 10 mins by FLIPR assay; type: functional, cell-based
Target sequence in this assay (P41594 whole entry): as above

Row | SMILES | Ki [1] | EC50 [2] | EC50 [4] | fraction unbound [7] | fraction unbound [8] | remaining at 10 min [12] | remaining at 10 min [14] | further results
1 | O=C1N[C@H](c2cncc(C#Cc3ccccc3)c2)[C@@H](c2ccc(F)cc2F)O1 | 1.4 nM | 1.2 nM | > 3000 nM | – | – | – | – | Activity [3]: Toxic
2 | O=C1N[C@H](c2cncc(C#Cc3ccccc3)c2)[C@@H](c2cccc(F)c2)O1 | – | – | – | – | – | – | – | Activity [3]: Toxic
3 | O=C1N[C@H](c2cncc(C#Cc3ccccc3)c2)[C@@H](c2cc(F)ccc2F)O1 | – | – | – | – | – | – | – | Activity [5]: Non-Toxic; Activity (Mus musculus [6]): Active
4 | O=C1N[C@H](c2cncc(C#Cc3ccccc3)c2)[C@@H](c2cccc(F)c2F)O1 | 1.8 nM | 4.2 nM | > 3000 nM | – | – | – | – | –
5 | O=C1N[C@H](c2cncc(C#Cc3ccccc3)c2)[C@@H](c2ccccc2)O1 | 1.4 nM | 0.7 nM | > 3000 nM | 0.047 | 0.008 | – | – | Activity [5]: Non-Toxic; inhibition [9]: inactive; Activity [10]: inactive; fraction unbound [11]: 0.007
6 | O=C1N[C@H](c2cncc(C#Cc3ccccc3)c2)[C@@H](c2ccccc2F)O1 | 1.9 nM | 1.5 nM | > 3000 nM | – | – | – | – | –
7 | O=C1N[C@H](c2cncc(C#Cc3ccccc3)c2)[C@@H](c2ccc(F)cc2)O1 | 1.7 nM | 0.4 nM | 504 nM | 0.009 | 0.004 | 92% | 81% | Activity [13]: Toxic; remaining at 10 min [15]: 80%
8 | O=C1N[C@H](c2cccc(C#Cc3ccccc3)n2)[C@@H](c2ccccc2)O1 | 44 nM | 9.4 nM | – | 0.011 | 0.009 | – | – | Activity [5]: Non-Toxic; inhibition [9]: inactive; Activity [10]: inactive; fraction unbound [11]: 0.009
9 | O=C1N[C@H](c2cncc(C#Cc3ccccc3)c2)[C@@H](c2ccccc2Cl)O1 [BMS-984923] | – | > 3000 nM | > 3000 nM | – | – | – | – | –
10 | O=C1N[C@H](c2cncc(C#Cc3ccccn3)c2)[C@@H](c2ccc(F)cc2)O1 | 23 nM | 25 nM | > 3000 nM | 0.069 | 0.064 | 100% | 97% | remaining at 10 min [15]: 89%
11 | O=C1N[C@H](c2cc(C#Cc3ccccc3)ccn2)[C@@H](c2ccccc2)O1 | – | – | – | 0.01 | 0.006 | – | – | inhibition [9]: inactive; Activity [10]: inactive; fraction unbound [11]: 0.009
12 | O=C1N[C@H](c2cncc(C#Cc3cccnc3)c2)[C@@H](c2ccc(F)cc2)O1 | 32 nM | 3.3 nM | 273 nM | 0.11 | 0.082 | 85% | 76% | remaining at 10 min [15]: 87%
13 | O=C1N[C@H](c2cccc(C#Cc3ccccc3)c2)[C@@H](c2ccccc2)O1 | – | 38 nM | – | 0.001 | < 0.001 | – | – | inhibition [9]: inactive; Activity [10]: inactive; fraction unbound [11]: 0.001; Ki [16]: 8.9 nM
14 | O=C1N[C@H](c2cncc(C#Cc3ncccc3F)c2)[C@@H](c2ccc(F)cc2)O1 | 14 nM | 10 nM | > 3000 nM | 0.13 | 0.076 | 100% | 100% | Activity [5]: Non-Toxic; Kp at 1 h [17]: 0.15; Kp at 1 h [18]: 0.14; concentration at 1 h [19]: 1430 nM; concentration at 1 h [20]: 56 nM; minimal effective dose (Mus musculus [21]): 10 mg/kg; concentration at 1 h [22]: 182 nM; concentration at 1 h [23]: 375 nM; Kp at 1 h [24]: 0.1 to 0.11; remaining at 10 min [15]: 100%; concentration at 1 h [25]: 542 nM; concentration at 1 h [26]: 5250 nM
15 | O=C1N[C@H](c2cncc(C#Cc3cncc(F)c3)c2)[C@@H](c2ccc(F)cc2)O1 | – | – | 315 nM | – | 0.035 | 85% | 97% | Activity [27]: Toxic; Activity [28]: Non-Toxic; remaining at 10 min [15]: 77%
16 | O=C1N[C@H](c2cncc(C#Cc3ccnc(F)c3)c2)[C@@H](c2ccc(F)cc2)O1 | 15 nM | 4.8 nM | > 3000 nM | 0.11 | 0.034 | 100% | 92% | Activity [27]: Toxic
17 | O=C1N[C@H](c2ccnc(C#Cc3ccccc3)c2)[C@@H](c2ccccc2)O1 | 2.1 nM | 1.5 nM | – | 0.021 | 0.005 | – | – | inhibition [9]: inactive; Activity [10]: inactive; fraction unbound [11]: 0.012
18 | O=C1N[C@H](c2cncc(C#Cc3ccccc3)c2)[C@@H](c2ccc(F)c(F)c2)O1 | 2.8 nM | 0.2 nM | 50 nM | – | – | – | – | –
19 | O=C1N[C@H](c2cncc(C#Cc3ccccc3)c2)[C@@H](c2c(F)cccc2F)O1 | 2.7 nM | > 3000 nM | > 3000 nM | – | – | – | – | IC50 [29]: 27 nM
20 | O=C1N[C@H](c2cncc(C#Cc3ccccc3)c2)[C@@H](c2ccc(Cl)cc2)O1 | 2.2 nM | 0.6 nM | 333 nM | – | – | – | – | –
21 | O=C1N[C@H](c2cncc(C#Cc3ccncc3)c2)[C@@H](c2ccc(F)cc2)O1 | 16 nM | 14 nM | > 3000 nM | 0.1 | 0.14 | 65% | 70% | remaining at 10 min [15]: 69%
22 | O=C1N[C@H](c2cncc(C#Cc3ccccc3)c2)[C@@H](c2cc(F)cc(F)c2)O1 | 1.4 nM | 5.5 nM | > 3000 nM | – | – | – | – | –
23 | O=C1N[C@H](c2cncc(C#Cc3ccccc3)c2)[C@@H](c2cccc(Cl)c2)O1 | 1.8 nM | 0.9 nM | > 3000 nM | – | – | – | – | –
